Measured values reported in the supplement of paper PMC11061612.

Legend:
Experiment in all cases: Bliss excess, mean over the matrix (fraction); higher = more synergy
[1] = system: KYSE-150 (Esophageal Squamous Cell Carcinoma)
Method in brief: (§1)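 Bliss excess equals the observed combination effect minus the expected value EA + EB − EA·EB, where EA and EB are the effects of each agent alone. Combination Emax is the second-highest inhibition within the matrix. Inhibition was scaled from CellTiter-Glo 2.0 luminescence, with 0 set by vehicle wells and 1 by blank wells, after 72 hours of two-drug dosing of cells plated in 1536-well plates.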

[2] = system: MFE-319 (Endometrial Carcinoma)
Method in brief: as §1

[3] = system: NCI-H513 (Other Solid Carcinomas)
Method in brief: as §1

[4] = system: BV-173 (Chronic Myelogenous Leukemia)
Method in brief: as §1

[5] = system: EW-18 (Ewing's Sarcoma)
Method in brief: as §1

[6] = system: TGBC11TKB (Gastric Carcinoma)
Method in brief: as §1

[7] = system: NB7 (Neuroblastoma)
Method in brief: as §1

[8] = system: RPMI-7951 (Melanoma)
Method in brief: as §1

[9] = system: NCI-H322M (Lung Adenocarcinoma)
Method in brief: as §1

[10] = system: HuP-T3 (Pancreatic Carcinoma)
Method in brief: as §1

[11] = system: SNU-C1 (Colorectal Carcinoma)
Method in brief: as §1

[12] = system: KINGS-1 (Low Grade Glioma)
Method in brief: as §1

[13] = system: HSC-2 (Oral Cavity Carcinoma)
Method in brief: as §1

[14] = system: U-87-MG (Glioblastoma)
Method in brief: as §1

[15] = system: NCI-N87 (Gastric Carcinoma)
Method in brief: as §1

[16] = system: GI-1 (Glioblastoma)
Method in brief: as §1

[17] = system: NCI-H2347 (Lung Adenocarcinoma)
Method in brief: as §1

[18] = system: JHH-7 (Hepatocellular Carcinoma)
Method in brief: as §1

[19] = system: KLE (Endometrial Carcinoma)
Method in brief: as §1

[20] = system: OCUM-1 (Gastric Carcinoma)
Method in brief: as §1

Structure (SMILES)	Bliss excess [1]	Bliss excess [2]	Bliss excess [3]	Bliss excess [4]	Bliss excess [5]	Bliss excess [6]	Bliss excess [7]	Bliss excess [8]	Bliss excess [9]	Bliss excess [10]	Bliss excess [11]	Bliss excess [12]	Bliss excess [13]	Bliss excess [14]	Bliss excess [15]	Bliss excess [16]	Bliss excess [17]	Bliss excess [18]	Bliss excess [19]	Bliss excess [20]
Cc1c2c(nn1C)CSCc1cc(n(C)n1)CSc1cc(c3ccccc3c1)OCCCc1c(C(=O)O)n(C)c3c-2c(Cl)ccc13 [AZD5991] + CC1(C)CCC(CN2CCN(c3ccc(C(=O)NS(=O)(=O)c4ccc(NCC5CCOCC5)c([N+](=O)[O-])c4)c(Oc4cnc5[nH]ccc5c4)c3)CC2)=C(c2ccc(Cl)cc2)C1 [Venetoclax] (first compound max 1 µM, 7x7, partner max 1 µM)	-0.0324	0.0377	-0.0072	0.0178	0.046	0.0364	-0.0612	-0.0568	-0.0378	-0.0358	-0.0458	-0.0771	0.0693	-0.0877	-0.0041	0.0476	-0.0188	0.0183	-0.0505	-0.0182
C[C@@H](c1ccc2nccn2c1)n1nnc2ncc(-c3cnn(C)c3)nc21 [Savolitinib] + Cc1c2c(nn1C)CSCc1cc(n(C)n1)CSc1cc(c3ccccc3c1)OCCCc1c(C(=O)O)n(C)c3c-2c(Cl)ccc13 [AZD5991] (first compound max 1 µM, 7x7, partner max 1 µM)	-0.0428	-0.0751	-0.0733	-0.0404	-0.0113	-0.0197	-0.0221	-0.0199	-0.0638	-0.0526	-0.0558	0.0058	-0.0493	-0.0347	-0.0513	0.0227	-0.0559	-0.0404	-0.0822	-0.0085
CN(C)CCCOc1ccc(-c2ccc3ncc4c(c3c2)n(C2CCOCC2)c(=O)n4C)cn1 [AZD0156] + O=C(c1cc(Cc2n[nH]c(=O)c3ccccc23)ccc1F)N1CCN(C(=O)C2CC2)CC1 [Olaparib] (first compound max 3 µM, partner max 3 µM)	0.116	0.0188	-0.0347	0.092	0.172	-0.0984	0.115	0.0588	0.0142	-0.0247	-0.0049	-0.0057	0.156	0.0207	-0.0568	0.0337	-0.0089	0.117	-0.0506	-0.0199
NC1(C(=O)N[C@@H](CCO)c2ccc(Cl)cc2)CCN(c2ncnc3[nH]ccc23)CC1 [Capivasertib] + CCN(CCO)CCCOc1ccc2c(Nc3cc(CC(=O)Nc4cccc(F)c4)[nH]n3)ncnc2c1 [AZD2811] (first compound max 10 µM, 7x7, partner max 1 µM)	-0.011	-0.107	-0.0479	-0.031	-0.0358	-0.0987	0.0377	-0.0886	0.0203	-0.0317	-0.0407	-0.0012	0.0572	0.0175	-0.0529	0.022	-0.0369	-0.0692	-0.0611	0.0378
COc1cc2ncnc(Nc3ccc(F)c(Cl)c3)c2cc1OCCCN1CCOCC1 [Gefitinib] + CC(C)n1c(=O)n(C)c2cnc3cc(F)c(-c4ccc(OCCCN5CCCCC5)nc4)cc3c21 [AZD1390] (first compound max 10 µM, 7x7, partner max 0.3 µM)	-0.0834	-0.0805	-0.0828	-0.0778	-0.0343	-0.0382	-0.0402	-0.0498	-0.0312	-0.0595	-0.0507	-0.0594	-0.0442	-0.0771	-0.064	-0.013	-0.0771	-0.0451	-0.0548	-0.101
CC1(C)CCC(CN2CCN(c3ccc(C(=O)NS(=O)(=O)c4ccc(NCC5CCOCC5)c([N+](=O)[O-])c4)c(Oc4cnc5[nH]ccc5c4)c3)CC2)=C(c2ccc(Cl)cc2)C1 [Venetoclax] + Cc1cc2ncnn2cc1Nc1ncc2c(n1)n(C1CCOCC1)c(=O)n2C [AZD7648] (first compound max 1 µM, 7x7, partner max 10 µM)	-0.0509	-0.0442	-0.0321	-0.0492	0.0188	-0.0592	-0.018	-0.0226	-0.0397	-0.0331	-0.0259	-0.0474	-0.0177	-0.0832	-0.0609	0.0369	-0.0665	-0.0446	-0.0432	-0.0144
CC1(C)CCC(CN2CCN(c3ccc(C(=O)NS(=O)(=O)c4ccc(NCC5CCOCC5)c([N+](=O)[O-])c4)c(Oc4cnc5[nH]ccc5c4)c3)CC2)=C(c2ccc(Cl)cc2)C1 [Venetoclax] + C[C@@H]1COCCN1C2=NC(=NC(=C2)C3(CC3)[S@](=N)(=O)C)C4=C5C=CNC5=NC=C4 [AZD6738] (first compound max 1 µM, 7x7, partner max 10 µM)	-0.0979	-0.0494	-0.0111	-0.0634	-0.0293	-0.0273	-0.0342	-0.0474	-0.0433	-0.0201	-0.124	-0.0432	0.0275	-0.0487	-0.0232	-0.0025	-0.0454	-0.0318	-0.0538	-0.0242
Cc1c2c(nn1C)CSCc1cc(n(C)n1)CSc1cc(c3ccccc3c1)OCCCc1c(C(=O)O)n(C)c3c-2c(Cl)ccc13 [AZD5991] + C[C@@H]1COCCN1C2=NC(=NC(=C2)C3(CC3)[S@](=N)(=O)C)C4=C5C=CNC5=NC=C4 [AZD6738] (first compound max 1 µM, 7x7, partner max 10 µM)	0.0556	0.05	0.0278	-0.0537	-0.0141	-0.0218	0.028	0.0095	0.0012	-0.0053	-0.0626	0.0151	-0.0459	-0.0241	-0.0285	-0.0238	-0.0489	0.0642	-0.0021	-0.0052
Cc1c2c(nn1C)CSCc1cc(n(C)n1)CSc1cc(c3ccccc3c1)OCCCc1c(C(=O)O)n(C)c3c-2c(Cl)ccc13 [AZD5991] + C[C@@H](Nc1cc(F)cc(F)c1)c1cc(C(=O)N(C)C)cc2c(=O)cc(N3CCOCC3)oc12 [AZD8186] (first compound max 1 µM, 7x7, partner max 3 µM)	-0.0127	0.0209	0.0221	-0.0917	0.0122	0.0005	0.0187	0.0878	0.0225	-0.0622	-0.0148	-0.0111	0.0042	-0.097	-0.0181	0.0556	0.0251	-0.0439	0.0077	-0.0302
CC1(C)CCC(CN2CCN(c3ccc(C(=O)NS(=O)(=O)c4ccc(NCC5CCOCC5)c([N+](=O)[O-])c4)c(Oc4cnc5[nH]ccc5c4)c3)CC2)=C(c2ccc(Cl)cc2)C1 [Venetoclax] + CN(C)CCCOc1ccc(-c2ccc3ncc4c(c3c2)n(C2CCOCC2)c(=O)n4C)cn1 [AZD0156] (first compound max 1 µM, 7x7, partner max 1 µM)	-0.0356	0.0513	-0.0142	-0.0598	0.0697	-0.0022	0.0104	0	-0.0103	-0.0925	-0.051	-0.0746	0.0307	-0.0163	-0.0763	0.0106	-0.0488	-0.032	-0.145	-0.0257
CN(CCO)CC[C@H](CSc1ccccc1)Nc1ccc(S(=O)(=O)NC(=O)c2ccc(N3CCC([C@@H](O)c4ccccc4-c4ccc(Cl)cc4)CC3)cc2)cc1S(=O)(=O)C(F)(F)F [AZD4320] + CCN(CCO)CCCOc1ccc2c(Nc3cc(CC(=O)Nc4cccc(F)c4)[nH]n3)ncnc2c1 [AZD2811] (first compound max 1 µM, 7x7, partner max 1 µM)	0.007	0.0841	-0.0283	-0.0566	-0.0795	0.0198	0.0258	0.0295	-0.0353	-0.0384	-0.0263	0.006	0.166	-0.019	0.0195	0.144	-0.0472	-0.0085	-0.0207	0.0648
C=CCn1c(=O)c2cnc(Nc3ccc(N4CCN(C)CC4)cc3)nc2n1-c1cccc(C(C)(C)O)n1 [AZD1775] + C1CN(CCC1(C(=O)N[C@@H](CCO)C2=CC=C(C=C2)Cl)N)C3=NC=NC4=C3C=CN4 [Capivasertib] (first compound max 3 µM, partner max 3 µM)	0.0064	-0.0524	-0.0372	0.0291	0.0244	-0.0422	-0.0648	-0.0274	0.0152	-0.0608	-0.0869	-0.0687	0.0724	0.0503	-0.0067	0.0543	-0.0534	-0.0045	-0.0627	-0.0694
